Results: patent publication US8685924B2, “Preventives/remedies for stress urinary incontinence and method of screening the same” (Takeda Pharmaceutical Company Limited, priority 2004, dated 2014)

Experiments:
Format in all cases: in vivo, rat
[1] = test system: urethane-anesthetized female rats; experiment: Leak point pressure by intravesical pressure-clamp method (Example 6); conditions: for leak point pressure after drug administration / leak point pressure before drug administration: i.v., mean ± SEM; for leak point pressure after drug administration: 10 min later; for leak point pressure before drug administration: baseline
Protocol: SD female rats (body weight 180-350 g) were anesthetized with urethane (Wako Pure Chemical Industries, Ltd.), and the spinal cord was transected at T8-9 level to eliminate the reflex voiding.
Halothane (Takeda Pharmaceutical Company Limited) anesthesia was added when necessary during operation. After laparotomy, the bladder neck was tied with a suture thread and then a catheter (PE-90, Clay Adams) was inserted into the bladder and secured with a ligature. The other end of the bladder catheter was connected to a pressure transducer and saline storage reservoir (60 ml syringe) via a three-way cock.
Changes in the intravesical pressure measured by a transducer were input in a computer via an amplifier (blood pressure amplification unit AP-641G; NIHON KODEN) and an analog-to-digital cinverter (MP-100; biopack) and recorded on a hard disc. The intravesical pressure was raised for 90 sec by setting the saline storage reservoir at a given height, and the presence or absence of saline leakage from the urethral orifice was observed. The intravesical pressure was raised every 2.5 cmH2O and, after 90 sec observation period, the intravesical pressure was once returned to 0 cmH2O, after which the next step was performed. The intravesical pressure at which the saline leakage from the urethral orifice was observed was taken as the leak point pressure. The measurement of the leak point pressure was repeated and the average of the final three measures was taken as the value before the drug administration. The drug was intravenously administered, and the leak point pressure was measured again 10 min later. The drug was dissolved in DMA-PEG400 (1:1), and administered at 0.5 ml/kg.

[2] = test system: urethane-anesthetized female rats; experiment: Leak point pressure by direct compressing of the bladder (Example 4); conditions: for leak point pressure after drug administration / leak point pressure increase / leak point pressure before drug administration: i.v., mean ± SEM; for leak point pressure after drug administration: 20 min later; for leak point pressure before drug administration: baseline
Protocol: (§1) SD female rats (body weight 180-350 g) were anesthetized with urethane (Wako Pure Chemical Industries, Ltd.), and halothane (Takeda Pharmaceutical Company Limited) anesthesia was added when necessary during operation.
(§2) The spinal cord was transected at T8-9 level to eliminate the reflex voiding. The lower abdomen was incised in the median line, a catheter for intravesical pressure measurement (PE-90, Clay Adams) was inserted into the bladder and secured with a ligature, and the intravesical pressure was measured via a pressure transducer. Urine was emptized in advance by bilaterally pressing the bladder with two swabs, and a 0.1% Evans blue (Merck) solution (0.4 mL) was injected into the bladder. The bladder was gradually compressed bilaterally with two swabs, and the intravesical pressure upon saline leakage from the urethral orifice was measured and defined as a leak point pressure. The measurement of the leak point pressure was repeated, and the average value of the final five stable measures was taken as the value before drug administration. Thereafter, the drug was intravenously administered, the leak point pressure was measured again 20 min later, and the value after the drug administration was determined. DOI, mCPP and eltoprazine were dissolved in saline, and other drugs were dissolved in DMA/PEG400 (1:1), and intravenously administered at 1 ml/kg and 0.5 mg/kg, respectively. Depending on the experiment, RS-102221 or SB221284 (showing serotonin 5-HT2C receptor antagonist activity) was administered, 5 min later, WAY-161503 or WAY-163909 was administered, leak point pressure was measured 10 min later, and a competitive assay with the action of WAY-161503 or WAY-163909 was performed. RS-102221 and SB221284 were both dissolved in DMA/PEG400 (1:1), and intravenously administered at 0.5 ml/kg.

[3] = test system: urethane-anesthetized female rats; experiment: Antagonism of the leak point pressure increase by WAY-161503 / WAY-163909, direct bladder compression method (Example 4); conditions: agonist 0.3 mg/kg, i.v., antagonist: solvent, mean ± SEM
Protocol: as §1, §2

[4] = test system: urethane-anesthetized female rats; experiment: Antagonism of the leak point pressure increase by WAY-161503 / WAY-163909, abdominal wall-electrically stimulating method (Example 3); conditions: agonist 0.3 mg/kg, i.v., antagonist: solvent, mean ± SEM
Protocol: (§3) SD female rats (body weight 180-350 g) were anesthetized with urethane (Wako Pure Chemical Industries, Ltd.), and the spinal cord was transected at T8-9 level to eliminate the reflex voiding. In addition, the nerve to the iliococcygeus muscle/pubococcygeus muscle on the one side was transected. During operation, halothane (Takeda Pharmaceutical Company Limited) anesthesia was added when necessary. A catheter (PE-90, Clay Adams) was inserted into the bladder and secured with a ligature, and the incised part of each of the abdominal muscle and skin was closed with sutures. The abdominal skin near the diaphragm was incised at two left and right positions to newly expose the abdominal muscle. An Evans Blue dye (Merck) solution was injected into the bladder, and the bladder volume was adjusted to 0.2-0.3 ml. The bladder catheter was connected to a pressure transducer, and the signals of the transducer were sent to a computer via an amplifier (blood pressure amplification unit AP-641G; NIHON KOHDEN) and an analog-to-digital converter (BIOPAC; MP100), and recorded on a hard disc. The data were analyzed on a computer using software (BIOPAC; AcqKnowledge). The exposed abdominal muscle was electrostimulated using an electrostimulator (SEN-3301; NIHON KODEN) and an isolator (SS-202J; NIHON KODEN), and the presence or absence of incontinence from the meatus urethra was observed. The electrostimulation was applied at a voltage of 2.5-50 V, duration of 0.5 milisec, and frequency 50 Hz for 1 sec, thereby gradually increasing the intravesical pressure. The peak intravesical pressure during stimulation of the abdominal wall was measured and, of the trials with observed incontinence, the lowest peak intravesical pressure was defined as the leak point pressure. Serotonin 5-HT receptor agonist, WAY-161503 (5-HT2C receptor agonist), WAY-163909 (5-HT2C receptor agonist), DOI (5-HT2A/2B/2C receptor agonist), mCPP (5-HT2B/2C receptor partial agonist), eltoprazine (5-HT1A/1B/2C receptor partial agonist), 8-OH-DPAT (5-HT1A receptor agonist), sumatryptan (5-HT1B/1D receptor agonist) and BW723C86 (5-HT2B receptor agonist) were intravenously administered, and the leak point pressure was compared before and after the administration. DOI, mCPP and eltoprazine were dissolved in saline, and other drugs were dissolved in DMA/PEG400 (1:1), and they were intravenously administered at 1 ml/kg and 0.5 mg/kg, respectively. Depending on the experiment, RS-102221 (serotonin 5-HT2C receptor antagonist) or SB221284 (serotonin 5-HT2B/2C receptor antagonist) was intravenously administered 5 min before WAY-161503 or WAY-163909 administration, and an antagonistic effect against the WAY-161503 or WAY-163909-induced increment of the leak point pressure was examined. RS-102221 and SB221284 were both dissolved in DMA/PEG400 (1:1) and intravenously administered at 0.5 ml/kg.

[5] = test system: urethane-anesthetized female rats; experiment: Leak point pressure by abdominal wall-electrically stimulating method, serotonin 5-HT receptor agonists (Example 3); conditions: for leak point pressure after drug administration / leak point pressure increase / leak point pressure before drug administration: i.v., mean ± SEM; for leak point pressure before drug administration: baseline
Protocol: as §3

[6] = test system: urethane-anesthetized female rats; experiment: Leak point pressure by abdominal wall electrostimulation, rats with nerve to iliococcygeus/pubococcygeus muscle transected on one side (Example 2); conditions: for leak point pressure after drug administration / leak point pressure increase / leak point pressure before drug administration: i.v., mean ± SEM; for leak point pressure before drug administration: baseline
Protocol: SD female rats (body weight 180-350 g) were anesthetized with urethane (Wako Pure Chemical Industries, Ltd.), and the spinal cord was cut at T8-9 level to eliminate the reflex voiding. In addition, the nerve to the iliococcygeus muscle/pubococcygeus muscle on the one side was transected. During operation, halothane (Takeda Pharmaceutical Company Limited) anesthesia was added when necessary. A catheter (PE-90, Clay Adams) was inserted into the bladder and secured with a ligature, and the incised part of each of the abdominal muscle and skin was closed with sutures. The abdominal skin near the diaphragm was incised at two left and right positions to newly expose the abdominal muscle. An Evans Blue dye (Merck) solution was injected into the bladder, and the bladder volume was adjusted to 0.2-0.3 ml. The bladder catheter was connected to a pressure transducer, and the signals of the transducer were sent to a computer via an amplifier (blood pressure amplification unit AP-641G; NIHON KOHDEN) and an analog-to-digital converter (BIOPAC; MP100), and recorded on a hard disc. The data were analyzed on a computer using software (BIOPAC; AcqKnowledge). The exposed abdominal muscle was electrostimulated using an electrostimulator (SEN-3301; NIHON KODEN) and an isolator (SS-202J; NIHON KODEN), and the presence or absence of incontinence from the urethral orifice was observed. The electrostimulation was applied at a voltage of 3-50 V, duration of 0.05-0.5 milisec, and frequency 50 Hz for 1 sec, thereby gradually increasing the intravesical pressure. The peak intravesical pressure during stimulation of the abdominal wall was measured and, of the trials with observed incontinence, the lowest peak intravesical pressure was defined as the leak point pressure. The leak point pressure was compared before and after the duloxetine and midodrine administration. Duloxetine was dissolved in […] (DMA)/polyethylene glycol 400 (PEG400) (1:1), and intravenously administered at 0.5 ml/kg. Midodrine (hydrochloride, Sigma) was dissolved in saline and intravenously administered at 1 ml/kg.

C[C@]12CCC(=O)C[C@@H]1CC[C@@H]1[C@@H]2CC[C@]2(C)[C@@H](O)CC[C@@H]12 [DHT, dihydrotestosterone]
leak point pressure after drug administration ([1]; 0.3 mg/kg): 35.5 ± 3.9 cmH2O | leak point pressure after drug administration ([1]; 1 mg/kg): 41.1 ± 3.4 cmH2O | leak point pressure after drug administration ([1]; 3 mg/kg): 36.9 ± 2.1 cmH2O | leak point pressure before drug administration ([1]; dose group 0.3 mg/kg): 32.1 ± 3.9 cmH2O | leak point pressure before drug administration ([1]; dose group 1 mg/kg): 35.7 ± 3.1 cmH2O | leak point pressure before drug administration ([1]; dose group 3 mg/kg): 30.5 ± 2.2 cmH2O | effect on leak point pressure ([1]; intravesical pressure-clamp method): increased the leak point pressure

c1cc2c3c(c1)[C@H]1CCC[C@H]1N3CCNC2 [WAY-163909]
leak point pressure after drug administration ([2]; 0.03 mg/kg): 73.3 ± 3.9 cmH2O | leak point pressure increase ([2]; 0.03 mg/kg): 6.6 ± 2.2 cmH2O | leak point pressure after drug administration ([2]; 0.1 mg/kg): 76.0 ± 2.7 cmH2O | leak point pressure increase ([2]; 0.1 mg/kg): 11.8 ± 2.0 cmH2O | leak point pressure after drug administration ([2]; 0.3 mg/kg): 69.9 ± 3.5 cmH2O | leak point pressure increase ([2]; 0.3 mg/kg): 17.0 ± 1.8 cmH2O | leak point pressure after drug administration ([2]; 1 mg/kg): 78.7 ± 5.7 cmH2O | leak point pressure increase ([2]; 1 mg/kg): 20.4 ± 4.0 cmH2O | leak point pressure after drug administration ([2]; 3 mg/kg): 78.7 ± 4.7 cmH2O | leak point pressure increase ([2]; 3 mg/kg): 26.0 ± 3.5 cmH2O | leak point pressure before drug administration ([2]; dose group 0.03 mg/kg): 66.6 ± 5.1 cmH2O | leak point pressure before drug administration ([2]; dose group 0.1 mg/kg): 64.2 ± 1.3 cmH2O | leak point pressure before drug administration ([2]; dose group 0.3 mg/kg): 52.9 ± 3.6 cmH2O | leak point pressure before drug administration ([2]; dose group 1 mg/kg): 58.4 ± 2.3 cmH2O | leak point pressure before drug administration ([2]; dose group 3 mg/kg): 52.7 ± 1.4 cmH2O | effect on leak point pressure ([2]; intravenous administration): dose-dependently increased the leak point pressure | leak point pressure after drug administration [3]: 77.6 ± 3.8 cmH2O | leak point pressure increase [3]: 15.0 ± 1.1 cmH2O | leak point pressure before drug administration ([3]; baseline): 62.6 ± 4.2 cmH2O | leak point pressure after drug administration [4]: 57.6 ± 4.5 cmH2O | leak point pressure increase [4]: 13.7 ± 2.2 cmH2O | leak point pressure before drug administration ([4]; baseline): 43.9 ± 4.3 cmH2O | leak point pressure after drug administration ([5]; 0.03 mg/kg): 43.0 ± 6.3 cmH2O | leak point pressure increase ([5]; 0.03 mg/kg): 3.5 ± 3.1 cmH2O | leak point pressure after drug administration ([5]; 0.1 mg/kg): 55.5 ± 1.8 cmH2O | leak point pressure increase ([5]; 0.1 mg/kg): 11.1 ± 3.0 cmH2O | leak point pressure after drug administration ([5]; 0.3 mg/kg): 55.9 ± 8.5 cmH2O | leak point pressure increase ([5]; 0.3 mg/kg): 14.4 ± 3.9 cmH2O | leak point pressure after drug administration ([5]; 1 mg/kg): 67.1 ± 5.2 cmH2O | leak point pressure increase ([5]; 1 mg/kg): 24.0 ± 3.1 cmH2O | leak point pressure before drug administration ([5]; dose group 0.03 mg/kg): 39.5 ± 4.3 cmH2O | leak point pressure before drug administration ([5]; dose group 0.1 mg/kg): 44.4 ± 4.5 cmH2O | leak point pressure before drug administration ([5]; dose group 0.3 mg/kg): 41.6 ± 6.0 cmH2O | leak point pressure before drug administration ([5]; dose group 1 mg/kg): 43.1 ± 3.4 cmH2O | dose at which a significant effect on the leak point pressure was afforded ([5]; intravenous administration): not less than 0.1 mg/kg | effect on leak point pressure ([5]; intravenous administration): dose-dependently increased the leak point pressure

COc1ccc(OC)c(C(O)CNC(=O)CN)c1 (centres unmarked) [midodrine]
leak point pressure after drug administration ([6]; 3 mg/kg): 39.5 ± 7.5 cmH2O | leak point pressure increase ([6]; 3 mg/kg): 3.3 ± 4.0 cmH2O | leak point pressure after drug administration ([6]; 10 mg/kg): 45.1 ± 3.8 cmH2O | leak point pressure increase ([6]; 10 mg/kg): 6.1 ± 1.4 cmH2O | leak point pressure before drug administration ([6]; dose group 3 mg/kg): 36.2 ± 4.8 cmH2O | leak point pressure before drug administration ([6]; dose group 10 mg/kg): 38.9 ± 4.5 cmH2O | effect on leak point pressure, comparison before and after administration ([6]; intravenously administered): significant increase in the leak point pressure
